Experimental data as given in patent US11155537B2, “Crystal of benzofuran derivative free base and preparation method” (Jiangsu Hengrui Medicine Co., Ltd., priority 2017, dated 2021).

Experiments:
[1] = Long-term, accelerated stability of crystal forms B and D (XRPD); assay type: physicochemical; conditions: Day 20; for change of XRPD peaks / crystal form stability: spread flat in the air
Experimental: 2. X-ray Powder Diffraction, XRPD
Instrument type: BRUKER D8 Discover A25 X-ray powder diffractometer
Ray: monochromatic Cu—Kα ray (λ=1.5406 Å)
Scanning mode: θ/2,θ Scanning range: 10-48°
Voltage: 40 kV, Electric current: 40 mA
The sample of crystal form B was spread flat in the air to test sample stability under conditions of 25° C.-65% relative humidity (RH), and the sampling time was Day 20. The sample of crystal form D was spread flat in the air to test sample stability under conditions of 40° C.-75% RH and 25° C.-65% RH, and the sampling time was Day 20.

[2] = Dynamic Vapour Sorption (DVS) hygroscopicity; assay type: physicochemical; conditions: 25° C., water, humidity change 0-95-0-95-0% RH; FIGS. 8 and 9
Experimental: 3. Dynamic Vapour Sorption, DVS
Instrument type: DVS advantage
The crude product N-((4,6-dimethyl-2-oxo-1,2-dihydropyridin-3 -yl)methyl)-5 -ethyl-6-(ethyl(tetrahydro-2 H-pyran-4-yl)amino)-2-(piperidin-1-ylmethyl)benzofuran-4-carboxamide (50 mg, 0.091 mmol) obtained in Comparative example 1 was added to a reaction flask, and methanol (100 μL) was added. The solution was stirred at 25° C. for five days, filtrated and dried under vacuum to obtain a white to pale yellow powder. The DSC spectrum is shown in FIG. 7, in which the onset melting temperature is about 205.45° C.

Row | change of XRPD peaks / crystal form stability ([1]; 25° C.-65% RH) | hygroscopicity (DVS diagrams) [2] | physical stability compared between crystal forms ([1]; 25° C.-65%RH) | change of XRPD peaks / crystal form stability ([1]; 40° C.-75% RH) | Structure (SMILES)
1 | has changed significantly |  |  |  | CCc1c(N(CC)C2CCOCC2)cc2oc(CN3CCCCC3)cc2c1C(=O)NCc1c(C)cc(C)[nH]c1=O [crystal form B, N-((4,6-dimethyl-2-oxo-1,2-dihydropyridin-3-yl)methyl)-5-ethyl-6-(ethyl(tetrahydro-2 H-pyran-4-yl)amino)-2-(piperidin-1-ylmethyl)benzofuran-4-carboxamide]
2 |  | no obvious hygroscopicity | better than that of crystal form B | has not changed substantially | CCc1c(N(CC)C2CCOCC2)cc2oc(CN3CCCCC3)cc2c1C(=O)NCc1c(C)cc(C)[nH]c1=O [crystal form D, N-((4,6-dimethyl-2-oxo-1,2-dihydropyridin-3-yl)methyl)-5-ethyl-6-(ethyl(tetrahydro-2 H-pyran-4-yl)amino)-2-(piperidin-1-ylmethyl)benzofuran-4-carboxamide]
